The subject of test [1] is brown skin surface lipid of the rats. Kind of test: Antiseborrheic effect: browning of the shaved back of rats, visually assessed (half-back application, 14 days). It is filed as in vivo, male Wistar rats. The following applies: for Sebum reduction: (ΔP/Pk)·100. The text has this:
The antiseborrheic effect was closely studied using the animal tests described in the following:
The test animals were male Wistar rats having a body weight of 220 to 230 g at the beginning of the tests. The degree of browning on the shaved back of the rats was visually assessed. Browning is produced by the brown skin surface lipid of the rats. This test is based on the observation that young female rats and also male rats washed with a tenside solution or with a lipid solvent and also male rats systematically treated with estrogen only have the normal light, pink-colored skin after shaving. At the same time, only comparatively very small quantities of lipids can be extracted from the shaved hair.
In order to assess effectiveness, the test substances in solution in alcohol were each brushed onto half the back of 6 rats. The other half was only treated with the solvent minus active substances.
Over the test period of 14 days, the test substances were applied once daily for a total of 9 days. A group of 6 rats which remained completely untreated was used for further control. At the end of the test, the animals were shaved on their back and sides and were visually assessed independently by an examination panel of 6 people under double blind conditions.
The first criterion evaluated was whether the majority of examiners correctly recognized the treated side, differentiation being carried out as follows:
The second criterion evaluated was the difference between the righthand side and the lefthand side, each examiner having to award 1 point per animal on the following basis:
lighter side--0 point and
both sides the same--0.5 point
Significant differences between the untreated and treated sides in the second method of evaluation indicate the local effectiveness of a substance.
The third criterion evaluated was the difference in intensity between the shades of brown using the following scale:
In the third method or evaluation, the points total differences are worked out between the untreated control animals and the treated and untreated sides of the test animals, significant differences between the control animals and the treated side of the test animals again indicating the effectiveness of a substance.
At the same time, there is generally also a distinct difference between the untreated and treated sides of the groups of test animals. However, this difference is not always as clear as that between the control animals and the treated sides, for which there may be various reasons, including for example mechanical transfer of substance from one side to the other or solvent influence.
The following scheme was used for differentiating the effects according to evaluation methods 2 and 3:
Percentage sebum reduction
The sebum reduction is calculated from the points difference by working out the quotient between the points difference ΔP and the number of points for the control group Pk and expressing the value obtained in percent.
Sebum reduction=(ΔP/Pk)·100[%]

Test [2] concerns seborrhea / production of sebum. The following applies: background art; cited from earlier work.

These results are taken from patent US4503244A, “Sebosuppressive topical cosmetic preparations containing alkoxybenzoic acid esters, process for inhibiting sebum production and alkoxybenzoic acid esters” (Henkel Kommanditgesellschaft, priority 1983, dated 1985).

On to `CCCCCCCCCCOc1ccc(C(=O)OCCOCCOC)cc1` [C, p-decyloxybenzoic acid 2-(2-methoxyethoxy)-ethyl ester], for which, in test [1] (Conc. 0.1% in alcohol), the “Evaluation method 1 (percentage of examiners noticing an effect)” value is “++ (100%)”; the “Evaluation method 2 (points difference between treated and untreated side)” value was “++ (very large (≥99.9% probability))”; the “Evaluation method 3 (difference in intensity between shades of brown vs untreated control animals)” value is listed as “++ (very large (≥99.9% probability))”; the Sebum reduction is 26%. Further, in test [1] (Conc. 1.0% in alcohol), the “Evaluation method 1 (percentage of examiners noticing an effect)” value is given as “++ (100%)”; the “Evaluation method 2 (points difference between treated and untreated side)” value is listed as “++ (very large (≥99.9% probability))”; the “Evaluation method 3 (difference in intensity between shades of brown vs untreated control animals)” value is “++ (very large (≥99.9% probability))”; the Sebum reduction worked out at 100%.
As for `CCN(CC)C(=O)c1cccc(C)c1` [N,N-diethyl-m-toluamide], the “sebosuppressive / antiseborrheic effect of known substances” value in test [2] is recorded as “neither N,N-diethyl-m-toluamide nor phenylpentadienoic acid show, however, fully satisfactory sebosuppressive properties”.
Consider `CCCCCCCCCCOc1ccc(C(=O)OCC(=O)OC)cc1` [G, p-decyloxybenzoyloxy-acetic acid methyl ester], for which, in test [1] (Conc. 0.5% in alcohol), the “Evaluation method 1 (percentage of examiners noticing an effect)” value is on record as “++ (100%)”; the “Evaluation method 2 (points difference between treated and untreated side)” value is recorded as “++ (very large (≥99.9% probability))”; the “Evaluation method 3 (difference in intensity between shades of brown vs untreated control animals)” value is “++ (very large (≥99.9% probability))”; the Sebum reduction turned out to be 82%.
Turning to `O=C(O)C=CC=Cc1ccccc1` [phenylpentadienoic acid], in test [2], the “sebosuppressive / antiseborrheic effect of known substances” value was “neither N,N-diethyl-m-toluamide nor phenylpentadienoic acid show, however, fully satisfactory sebosuppressive properties”.
For the compound `CCCCCCCCCCOc1ccc(C(=O)OCCOC)cc1` [A, p-decyloxybenzoic acid 2-methoxy-ethyl ester], in test [1] (Conc. 0.1% in alcohol), the “Evaluation method 1 (percentage of examiners noticing an effect)” value is recorded as “++ (100%)”; the “Evaluation method 2 (points difference between treated and untreated side)” value is “++ (very large (≥99.9% probability))”; the “Evaluation method 3 (difference in intensity between shades of brown vs untreated control animals)” value is on record as “++ (very large (≥99.9% probability))”; the Sebum reduction is on record as 69%. In test [1] (Conc. 1.0% in alcohol), the “Evaluation method 1 (percentage of examiners noticing an effect)” value is “++ (100%)”; the “Evaluation method 2 (points difference between treated and untreated side)” value is “++ (very large (≥99.9% probability))”; the “Evaluation method 3 (difference in intensity between shades of brown vs untreated control animals)” value was “++ (very large (≥99.9% probability))”; the Sebum reduction is 100%.
`CCCCCCCCCCOc1ccc(C(=O)OCCO)cc1` [D, p-decyloxybenzoic acid 2-hydroxy-ethyl ester]: in test [1] (Conc. 1.0% in alcohol), the “Evaluation method 1 (percentage of examiners noticing an effect)” value was “++ (100%)”; the “Evaluation method 2 (points difference between treated and untreated side)” value was “++ (very large (≥99.9% probability))”; the “Evaluation method 3 (difference in intensity between shades of brown vs untreated control animals)” value is given as “++ (very large (≥99.9% probability))”; the Sebum reduction was found to be 98%.
Consider `CCCCCCCCCCOc1ccc(C(=O)OCCN(CC)CC)cc1` [E, p-decyloxybenzoic acid 2-diethylaminoethyl ester], for which, in test [1] (Conc. 0.1% in alcohol), the “Evaluation method 1 (percentage of examiners noticing an effect)” value is on record as “++ (100%)”; the “Evaluation method 2 (points difference between treated and untreated side)” value is recorded as “++ (very large (≥99.9% probability))”; the “Evaluation method 3 (difference in intensity between shades of brown vs untreated control animals)” value is listed as “++ (very large (≥99.9% probability))”; the Sebum reduction turned out to be 80%. Besides, in test [1] (Conc. 1.0% in alcohol), the “Evaluation method 1 (percentage of examiners noticing an effect)” value is “++ (100%)”; the “Evaluation method 2 (points difference between treated and untreated side)” value is “++ (very large (≥99.9% probability))”; the “Evaluation method 3 (difference in intensity between shades of brown vs untreated control animals)” value is “++ (very large (≥99.9% probability))”; the Sebum reduction was found to be 90%.
Consider `CCCCCCCCCCCCOc1ccc(C(=O)OCCOC)cc1` [F, p-dodecyloxybenzoic acid 2-methoxy-ethyl ester], for which, in test [1] (Conc. 0.2% in alcohol), the “Evaluation method 1 (percentage of examiners noticing an effect)” value is listed as “++ (100%)”; the “Evaluation method 2 (points difference between treated and untreated side)” value is on record as “++ (very large (≥99.9% probability))”; the “Evaluation method 3 (difference in intensity between shades of brown vs untreated control animals)” value is “++ (very large (≥99.9% probability))”; the Sebum reduction came to 92%. Moreover, in test [1] (Conc. 1.0% in alcohol), the “Evaluation method 1 (percentage of examiners noticing an effect)” value is “++ (100%)”; the “Evaluation method 2 (points difference between treated and untreated side)” value is “++ (very large (≥99.9% probability))”; the “Evaluation method 3 (difference in intensity between shades of brown vs untreated control animals)” value was “++ (very large (≥99.9% probability))”; the Sebum reduction turned out to be 91%.
`CCCCCCCCCCOc1ccc(C(=O)OCCOCC)cc1` [B, p-decyloxybenzoic acid 2-ethoxy-ethyl ester]: in test [1] (Conc. 0.1% in alcohol), the “Evaluation method 1 (percentage of examiners noticing an effect)” value is on record as “++ (100%)”; the “Evaluation method 2 (points difference between treated and untreated side)” value is given as “++ (very large (≥99.9% probability))”; the “Evaluation method 3 (difference in intensity between shades of brown vs untreated control animals)” value is “++ (very large (≥99.9% probability))”; the Sebum reduction was determined as 30%. Moreover, in test [1] (Conc. 1.0% in alcohol), the “Evaluation method 1 (percentage of examiners noticing an effect)” value was “++ (100%)”; the “Evaluation method 2 (points difference between treated and untreated side)” value is “++ (very large (≥99.9% probability))”; the “Evaluation method 3 (difference in intensity between shades of brown vs untreated control animals)” value is recorded as “++ (very large (≥99.9% probability))”; the Sebum reduction stood at 93%.
